Reference: patent US20150283137A1, “6-oxo-1,6-dihydro-pyridazine derivative for the use for the treatment of hepatocellular carcinoma (HCC)” (MERCK PATENT GMBH, priority 2012, published 2015)
Entries after “also recorded” stand apart in the source; their conditions may differ.

Columns and labels:
MHCC97H tumor fragments = experiment: Orthotopic MHCC97H tumor model; details: 100 mg/kg orally
Description: Method: In male BalB/c nude mice (7-8 week old) MHCC97H tumor fragments (2-3 mm^3) where orthotopically implanted into the left lobe of the liver. After 1 week of intrahepatic implantation animals were divided into treatment groups (ten animals in one group). Respective groups were administered orally with 3-(1-{3-[5-(1-methyl-piperidin-4-ylmethoxy)-pyrimidin-2-yl]-benzyl}-6-oxo-1,6-dihydro-pyridazin-3-yl)-benzonitrile hydrochloride hydrate at 100 mg/kg/5 days on and 2 days off for 5 weeks. At the end of treatment, tumor size and tumor weight were measured, plasma AFP levels and lung metastases analyzed.

[1] = system: human MHCC97H liver tumor cells; experiment: Subcutaneous MHCC97H tumor model; type: in vivo, mice; details: for T/C ratio: 5 days on and 2 days on; for anti-tumor activity (in words): established fast growing subcutaneous MHCC97H tumors
Description: Method: Male BalB/c nude mice (6-8 week old) where subcutaneously injected with human MHCC97H liver tumor cells and were divided into treatment groups (ten animals in one group) after the tumors were established (ca. 500 mm^3). Respective groups were administered orally with the 3-(1-{3-[5-(1-methyl-piperidin-4-ylmethoxy)-pyrimidin-2-yl]-benzyl}-6-oxo-1,6-dihydro-pyridazin-3-yl)-benzonitrile hydrochloride hydrate at different doses (10, 30 and 100 mg/kg) for 5 days on and […] or daily with sorafenib (50 mg/kg).

[2] = system: human primary HCC explants
Description: Method: Male BalB/c nude mice (6-8 week old) where subcutaneously transplanted with a primary HCC tumor fragment. Animals were divided into treatment groups (12 animals in one group) after the tumors were established. Respective groups were administered orally with the 3-(1-{3-[5-(1-methyl-piperidin-4-ylmethoxy)-pyrimidin-2-yl]-benzyl}-6-oxo-1,6-dihydro-pyridazin-3-yl)-benzonitrile hydrochloride hydrate at 100 mg/kg for 5 out of 7 days.

In the case of `CN1CCC(COc2cnc(-c3cccc(Cn4nc(-c5cccc(C#N)c5)ccc4=O)c3)nc2)CC1.Cl.O` [3-(1-{3-[5-(1-methyl-piperidin-4-ylmethoxy)-pyrimidin-2-yl]-benzyl}-6-oxo-1,6-dihydro-pyridazin-3-yl)-benzonitrile hydrochloride hydrate], the tolerability (MHCC97H tumor fragments; 5 days on and 2 days off for 5 weeks) is reported as “well tolerated”, the “anti-tumor activity on primary tumor (in words)” value (MHCC97H tumor fragments; 5 days on and 2 days off for 5 weeks, end of treatment at day 35, hydrochloride hydrate) is reported as “complete regression in all mice; also recorded: primary tumor regression (p<0.001)” and the lung metastases (MHCC97H tumor fragments; end of treatment) is reported as “reduction lung metastases (p<0.01)”. The “AFP levels in plasma” value (MHCC97H tumor fragments; end of treatment, hydrochloride hydrate) was “no AFP was measurable; also recorded: significantly reduced (p<0.001)”, the body weight (MHCC97H tumor fragments; followed throughout the study) was “no body weight loss could be detected” and the “tumor growth delay (TGD, time to reach a tumor volume of 1000 mm^3)” value (“tumor growth delay” for short) ([1]; 10 mg/kg orally) was 24 days. The T/C ratio ([1]; 10 mg/kg orally, end of treatment, tumors ca. 500 mm^3 at start) was −57%, the “tumor growth delay” value ([1]; 30 mg/kg orally) was 53 days and the T/C ratio ([1]; 30 mg/kg orally, end of treatment) was −93%. The “tumor growth delay” value ([1]; 100 mg/kg orally) was over 53 days, the T/C ratio ([1]; 100 mg/kg orally, end of treatment) was −93% and the “anti-tumor activity (in words)” value [1] was “completely inhibited growth and induced regressions”. For the same molecule, the “tolerability (body weight)” value ([2]; all mice) was “well tolerated in all mice”, the “anti-tumor activity compared with sorafenib monotherapy” value ([2]; models LIM801 and LIM612 (strong signs of c-Met signaling)) was “better anti-tumor activity than sorafenib monotherapy” and the “further activity in primary explants (in words)” value ([2]; nine primary explants, besides CR and SD) was “marginal activity in one additional model”. The “complete responses (CR)” value ([2]; nine subcutaneous established primary explants, 100 mg/kg 5 out of 7 days) was 1/9 and the “number of models with significantly inhibited growth” value ([2]; out of 9 models, 100 mg/kg/5 out of 7 days) was 4.

For `CNC(=O)c1cc(Oc2ccc(NC(=O)Nc3ccc(Cl)c(C(F)(F)F)c3)cc2)ccn1` [sorafenib, reference compound], the “anti-tumor activity (in words)” value [1] was “marginal anti tumor activity with no tumor regressions”, the T/C value ([1]; sorafenib 50 mg/kg orally daily, end of treatment) was 27% and the “number of models with anti-tumor activity” value ([2]; out of 9 models, sorafenib 50 mg/kg/5 out of 7 days) was 7.
